In ChEMBL document CHEMBL1201862, “PubChem BioAssay data set” (2004):
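Five compound concentrations were applied to cells in 96-well plates for 48 hours; endpoints were derived by simple linear interpolation of the resulting dose-response curve. GI50 = concentration required for 50% inhibition of growth.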 Calls of active or inactive are those of the source. Cut-off read from the data, not from the text of the source: active = GI50 up to about 1.1 µM and inactive = higher.

Legend:
Assay in all cases: growth of human tumour cells (NCI), 48 h
[1] = test system: A549
[2] = test system: CAKI-1
[3] = test system: CCRF-CEM
[4] = test system: COLO 205
[5] = test system: DMS-114
[6] = test system: DMS-273
[7] = test system: EKVX
[8] = test system: HCT-15
[9] = test system: HL-60
[10] = test system: HT-29
[11] = test system: IGROV-1
[12] = test system: K562
[13] = test system: KM12
[14] = test system: LOX IMVI
[15] = test system: M14
[16] = test system: M19-MEL
[17] = test system: MOLT-4
[18] = test system: NCI-H226
[19] = test system: NCI-H23
[20] = test system: NCI-H522
[21] = test system: OVCAR-3
[22] = test system: OVCAR-8
[23] = test system: RPMI-8226
[24] = test system: RXF 393
[25] = test system: SF-268
[26] = test system: SF-295
[27] = test system: SF-539
[28] = test system: SK-MEL-28
[29] = test system: SK-MEL-5
[30] = test system: SK-OV-3
[31] = test system: SN12C
[32] = test system: SNB-19
[33] = test system: SNB-75
[34] = test system: SW-620
[35] = test system: TK-10
[36] = test system: UACC-257
[37] = test system: UACC-62
[38] = test system: UO-31
[39] = test system: 786-0
[40] = test system: A498
[41] = test system: ACHN
[42] = test system: HCC 2998
[43] = test system: HCT-116
[44] = test system: HOP-62
[45] = test system: KM-20L2
[46] = test system: Malme-3M
[47] = test system: NCI-H460
[48] = test system: OVCAR-4
[49] = test system: OVCAR-5
[50] = test system: SK-MEL-2
[51] = test system: SNB-78
[52] = test system: SR
[53] = test system: U-251
[54] = test system: HOP-92
[55] = test system: LXFL 529

**Q.** What does the source list for `O=C1N[C@@H]2CCC[C@@H]2[C@@H]1c1ccc(Cl)cc1`?
**A.** GI50 [1]: > 100 µM (inactive); GI50 [2]: > 100 µM (inactive); GI50 [3]: > 100 µM (inactive); GI50 [4]: > 100 µM (inactive); GI50 [5]: 70 µM (inactive); GI50 [6]: > 100 µM (inactive); GI50 [7]: > 100 µM (inactive); GI50 [8]: > 100 µM; GI50 [9]: > 100 µM (inactive); GI50 [10]: > 100 µM (inactive); GI50 [11]: > 100 µM (inactive); GI50 [12]: > 100 µM (inactive); GI50 [13]: > 100 µM (inactive); GI50 [14]: > 100 µM (inactive); GI50 [15]: > 100 µM (inactive); GI50 [16]: > 100 µM (inactive); GI50 [17]: > 100 µM (inactive); GI50 [18]: 87.9 µM (inactive); GI50 [19]: > 100 µM (inactive); GI50 [20]: > 100 µM (inactive); GI50 [21]: > 100 µM (inactive); GI50 [22]: > 100 µM (inactive); GI50 [23]: > 100 µM (inactive); GI50 [24]: > 100 µM (inactive); GI50 [25]: > 100 µM (inactive); GI50 [26]: > 100 µM (inactive); GI50 [27]: > 100 µM (inactive); GI50 [28]: > 100 µM (inactive); GI50 [29]: > 100 µM (inactive); GI50 [30]: > 100 µM (inactive); GI50 [31]: > 100 µM (inactive); GI50 [32]: > 100 µM (inactive); GI50 [33]: > 100 µM (inactive); GI50 [34]: > 100 µM (inactive); GI50 [35]: > 100 µM (inactive); GI50 [36]: > 100 µM (inactive); GI50 [37]: > 100 µM (inactive); GI50 [38]: 65.2 µM (inactive)

**Q.** With `CC(=O)OC1CCC2OOC1O2` (stereo unspecified) as the compound, how does the GI50 [39] read?
**A.** > 100 µM (inactive)

**Q.** What about the GI50 [40] of the same compound?
**A.** > 100 µM (inactive)

**Q.** What about the GI50 [1] of the same compound?
**A.** > 100 µM (inactive)

**Q.** What about the GI50 [41] of the same compound?
**A.** > 100 µM (inactive)

**Q.** And the GI50 [2]?
**A.** > 100 µM (inactive)

**Q.** And the GI50 [3]?
**A.** > 100 µM (inactive)

**Q.** What about the GI50 [4] of the same compound?
**A.** > 100 µM (inactive)

**Q.** What about the GI50 [5] of the same compound?
**A.** > 100 µM (inactive)

**Q.** And the GI50 [6]?
**A.** > 100 µM (inactive)

**Q.** What about the GI50 [7] of the same compound?
**A.** > 100 µM (inactive)

**Q.** And the GI50 [42]?
**A.** > 100 µM (inactive)

**Q.** And the GI50 [43]?
**A.** > 100 µM (inactive)

**Q.** What about the GI50 [8] of the same compound?
**A.** > 100 µM

**Q.** What about the GI50 [9] of the same compound?
**A.** > 100 µM (inactive)

**Q.** What about the GI50 [44] of the same compound?
**A.** > 100 µM (inactive)

**Q.** What about the GI50 [10] of the same compound?
**A.** > 100 µM (inactive)

**Q.** What about the GI50 [11] of the same compound?
**A.** > 100 µM (inactive)

**Q.** And the GI50 [12]?
**A.** > 100 µM (inactive)

**Q.** What about the GI50 [45] of the same compound?
**A.** > 100 µM (inactive)

**Q.** What about the GI50 [13] of the same compound?
**A.** > 100 µM (inactive)

**Q.** And the GI50 [14]?
**A.** > 100 µM (inactive)

**Q.** And the GI50 [15]?
**A.** > 100 µM (inactive)

**Q.** And the GI50 [16]?
**A.** > 100 µM (inactive)

**Q.** And the GI50 [17]?
**A.** > 100 µM (inactive)

**Q.** What about the GI50 [46] of the same compound?
**A.** > 100 µM (inactive)

**Q.** And the GI50 [18]?
**A.** > 100 µM (inactive)

**Q.** What about the GI50 [19] of the same compound?
**A.** > 100 µM (inactive)

**Q.** And the GI50 [47]?
**A.** > 100 µM (inactive)

**Q.** And the GI50 [20]?
**A.** > 100 µM (inactive)

**Q.** And the GI50 [21]?
**A.** > 100 µM (inactive)

**Q.** And the GI50 [48]?
**A.** > 100 µM (inactive)

**Q.** And the GI50 [49]?
**A.** > 100 µM (inactive)

**Q.** And the GI50 [22]?
**A.** > 100 µM (inactive)

**Q.** And the GI50 [23]?
**A.** > 100 µM (inactive)

**Q.** And the GI50 [24]?
**A.** > 100 µM (inactive)

**Q.** What about the GI50 [25] of the same compound?
**A.** > 100 µM (inactive)

**Q.** What about the GI50 [26] of the same compound?
**A.** > 100 µM (inactive)

**Q.** And the GI50 [27]?
**A.** > 100 µM (inactive)

**Q.** And the GI50 [28]?
**A.** > 100 µM (inactive)

**Q.** What about the GI50 [50] of the same compound?
**A.** > 100 µM (inactive)

**Q.** What about the GI50 [29] of the same compound?
**A.** > 100 µM (inactive)

**Q.** And the GI50 [30]?
**A.** > 100 µM (inactive)

**Q.** And the GI50 [31]?
**A.** > 100 µM (inactive)

**Q.** And the GI50 [32]?
**A.** > 100 µM (inactive)

**Q.** And the GI50 [33]?
**A.** > 100 µM (inactive)

**Q.** What about the GI50 [51] of the same compound?
**A.** > 100 µM (inactive)

**Q.** And the GI50 [52]?
**A.** > 100 µM (inactive)

**Q.** What about the GI50 [34] of the same compound?
**A.** > 100 µM (inactive)

**Q.** What about the GI50 [35] of the same compound?
**A.** > 100 µM (inactive)

**Q.** And the GI50 [53]?
**A.** > 100 µM (inactive)

**Q.** And the GI50 [36]?
**A.** > 100 µM (inactive)

**Q.** What about the GI50 [37] of the same compound?
**A.** > 100 µM (inactive)

**Q.** And the GI50 [38]?
**A.** > 100 µM (inactive)

**Q.** What does the source list for `COc1ccc2c(c1)CC[C@@H]1C2CC[C@]2(C)C(=O)N(N)C(=O)CC12` (stereo partly specified)?
**A.** GI50 [39]: > 100 µM (inactive); GI50 [40]: 35.8 µM (inactive); GI50 [41]: > 100 µM (inactive); GI50 [3]: 80 µM (inactive); GI50 [4]: > 100 µM (inactive); GI50 [5]: 44.5 µM (inactive); GI50 [43]: > 100 µM (inactive); GI50 [44]: > 100 µM (inactive); GI50 [54]: > 100 µM (inactive); GI50 [10]: > 100 µM (inactive); GI50 [11]: > 100 µM (inactive); GI50 [12]: 32.6 µM (inactive); GI50 [45]: 32.9 µM (inactive); GI50 [13]: > 100 µM (inactive); GI50 [55]: 52.6 µM (inactive); GI50 [15]: 78.3 µM (inactive); GI50 [16]: > 100 µM (inactive); GI50 [17]: 44.4 µM (inactive); GI50 [46]: > 100 µM (inactive); GI50 [19]: > 100 µM (inactive); GI50 [47]: 37.2 µM (inactive); GI50 [20]: 48.8 µM (inactive); GI50 [21]: > 100 µM (inactive); GI50 [48]: > 100 µM (inactive); GI50 [49]: > 100 µM (inactive); GI50 [23]: 28.8 µM (inactive); GI50 [24]: > 10 µM (inactive); GI50 [25]: > 100 µM (inactive); GI50 [26]: > 100 µM (inactive); GI50 [28]: > 100 µM (inactive); GI50 [50]: > 100 µM (inactive); GI50 [30]: > 100 µM (inactive); GI50 [32]: > 100 µM (inactive); GI50 [33]: > 100 µM (inactive); GI50 [51]: 77.4 µM (inactive); GI50 [52]: 38 µM (inactive); GI50 [53]: > 100 µM (inactive); GI50 [36]: 35.6 µM (inactive); GI50 [37]: 80.9 µM (inactive); GI50 [38]: 72.9 µM (inactive)
